Reference: patent publication US9273054B2, “Substituted pyrimido[1,6-a]pyrimidines as Lp-PLA2 inhibitors” (Glaxo Group Limited, priority 2011, dated 2016)

How the values were obtained:
EAE rats = experiment: Rat experimental autoimmune encephalomyelitis (EAE) model, preventive treatment; assay type: in vivo
Procedure: A further study was carried out to study the impact of Lp-PLA2 inhibitors on modulating M1/M2 imbalance. In this study, rats were induced to develop experimental autoimmune encephalomyelitis (EAE) by immunization with myelin basic protein (MBP) antigen and treated with a known Lp-PLA2 inhibitor: 5-((9-Methoxy-4-oxo-6,7-dihydro-4H-pyrimido[6,1-a]isoquinolin-2-yl)oxy)-2-(3-(trifluoromethyl)phenoxy)benzonitrile (See PCT application no. PCT/CN2011/001597). In this preventive treatment model, the compound was administered at day 0 (day of immunization) and continued to administer until day 22. The study lasted for 25 days. Rats were subsequently monitored for symptoms of EAE. Rats were immunized with MBP to develop EAE and symptoms were monitored daily. Plasma Lp-PLA2 activity, O×LDL, and LysoPC concentration were determined at different time points through the course of EAE.

[1] = system: proinflammatory (M1) and anti-inflammatory (M2) markers in macrophages; experiment: Ex vivo analysis of M1 and M2 markers in macrophages of EAE rats by realtime PCR; parameters: species or system rat; conditions: splenic macrophages day 13 post MBP-immunization and CNS infiltrating macrophages
Procedure: Ex vivo analysis of proinflammatory (M1) and anti-inflammatory (M2) markers in control and compound treated EAE rats. Splenic macrophages were harvested at day 13 post MBP-immunization and assayed for expression of a variety of markers by realtime PCR. CNS infiltrating cells were harvested and macrophages were analyzed for expression of M1 and M2 markers by realtime PCR.

COc1ccc2c(c1)CCn1c-2cc(Oc2ccc(Oc3cccc(C(F)(F)F)c3)c(C#N)c2)nc1=O [5-((9-Methoxy-4-oxo-6,7-dihydro-4H-pyrimido[6,1-a]isoquinolin-2-yl)oxy)-2-(3-(trifluoromethyl)phenoxy)benzonitrile]
plasma Lp-PLA2 activity (EAE rats; rat EAE plasma): decreased Lp-PLA2 activity | plasma LysoPC levels (EAE rats; rat EAE plasma): decreased | clinical disease (EAE) (EAE rats; rat EAE, MBP immunization, administered day 0 until day 22): reduction in clinical disease | M1 markers expression [1]: decrease in M1 markers | M2 markers expression [1]: increase in M2 markers
